Experimental data as given in PubChem BioAssay (NCI).
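Compound exposure: 48 hours, 5 concentrations, 96-well plates. At the GI50, growth is halved. TGI: total growth inhibition.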

What was measured:
Assay in all cases: DTP human tumour cell line panel, 48 h
786-0 renal = test system: 786-0 renal
A498 renal = test system: A498 renal
A549 NSCLC = test system: A549 NSCLC
ACHN renal = test system: ACHN renal
BT-549 breast = test system: BT-549 breast
CAKI-1 renal = test system: CAKI-1 renal
CCRF-CEM leukemia = test system: CCRF-CEM leukemia
COLO 205 colon = test system: COLO 205 colon
DU-145 prostate = test system: DU-145 prostate
HCC-2998 colon = test system: HCC-2998 colon
HCT-116 colon = test system: HCT-116 colon
HCT-15 colon = test system: HCT-15 colon
HL-60(TB) leukemia = test system: HL-60(TB) leukemia
HOP-62 NSCLC = test system: HOP-62 NSCLC
HOP-92 NSCLC = test system: HOP-92 NSCLC
HS 578T breast = test system: HS 578T breast
HT29 colon = test system: HT29 colon
IGROV1 ovarian = test system: IGROV1 ovarian
K-562 leukemia = test system: K-562 leukemia
KM12 colon = test system: KM12 colon
M14 melanoma = test system: M14 melanoma
MALME-3M melanoma = test system: MALME-3M melanoma
MCF7 breast = test system: MCF7 breast
MDA-MB-231 breast = test system: MDA-MB-231 breast
MDA-MB-435 = test system: MDA-MB-435
MOLT-4 leukemia = test system: MOLT-4 leukemia
NCI-H226 lung = test system: NCI-H226 lung
NCI-H23 lung = test system: NCI-H23 lung
NCI-H460 lung = test system: NCI-H460 lung
NCI-H522 lung = test system: NCI-H522 lung
NCI/ADR-RES ovarian = test system: NCI/ADR-RES ovarian
OVCAR-3 ovarian = test system: OVCAR-3 ovarian
OVCAR-4 ovarian = test system: OVCAR-4 ovarian
OVCAR-5 ovarian = test system: OVCAR-5 ovarian
OVCAR-8 ovarian = test system: OVCAR-8 ovarian
PC-3 prostate = test system: PC-3 prostate
RPMI-8226 leukemia = test system: RPMI-8226 leukemia
RXF 393 renal = test system: RXF 393 renal
SF-268 CNS = test system: SF-268 CNS
SF-295 CNS = test system: SF-295 CNS
SF-539 CNS = test system: SF-539 CNS
SK-MEL-2 melanoma = test system: SK-MEL-2 melanoma
SK-MEL-28 melanoma = test system: SK-MEL-28 melanoma
SK-MEL-5 melanoma = test system: SK-MEL-5 melanoma
SK-OV-3 ovarian = test system: SK-OV-3 ovarian
SN12C renal = test system: SN12C renal
SNB-19 CNS = test system: SNB-19 CNS
SNB-75 CNS = test system: SNB-75 CNS
SR leukemia = test system: SR leukemia
SW-620 colon = test system: SW-620 colon
T-47D breast = test system: T-47D breast
TK-10 renal = test system: TK-10 renal
U251 CNS = test system: U251 CNS
UACC-257 melanoma = test system: UACC-257 melanoma
UACC-62 melanoma = test system: UACC-62 melanoma
UO-31 renal = test system: UO-31 renal

## O=C1Nc2ccccc2/C1=C\c1c[nH]c2ccc(Br)cc12
786-0 renal
  GI50: 3.82 µM
  TGI: 14.7 µM
A498 renal
  GI50: 1.88 µM
  TGI: 6.31 µM
A549 NSCLC
  GI50: 2.26 µM
  TGI: 6.23 µM
ACHN renal
  GI50: 2.82 µM
  TGI: 10.1 µM
BT-549 breast
  GI50: 4.26 µM
  TGI: 19.5 µM
CAKI-1 renal
  GI50: 2.67 µM
  TGI: 13.6 µM
CCRF-CEM leukemia
  GI50: 3.18 µM
  TGI: 10.5 µM
COLO 205 colon
  GI50: 1.77 µM
  TGI: 3.23 µM
DU-145 prostate
  GI50: 3.23 µM
  TGI: 11 µM
HCC-2998 colon
  GI50: 1.86 µM
  TGI: 3.45 µM
HCT-116 colon
  GI50: 1.61 µM
  TGI: 3.11 µM
HCT-15 colon
  GI50: 2.12 µM
  TGI: 5.59 µM
HL-60(TB) leukemia
  GI50: 2.79 µM
  TGI: 7.88 µM
HOP-62 NSCLC
  GI50: 3.5 µM
  TGI: 13.3 µM
HOP-92 NSCLC
  GI50: 0.573 µM
  TGI: 3.3 µM
HS 578T breast
  GI50: 2.2 µM
  TGI: 8.33 µM
HT29 colon
  GI50: 2.75 µM
  TGI: 6.56 µM
IGROV1 ovarian
  GI50: 2.57 µM
  TGI: 11.2 µM
K-562 leukemia
  GI50: 3.26 µM
  TGI: 8 µM
KM12 colon
  GI50: 0.633 µM
  TGI: 2.37 µM
M14 melanoma
  GI50: 1.67 µM
  TGI: 3.68 µM
MALME-3M melanoma
  GI50: 5.55 µM
  TGI: 25.1 µM
MCF7 breast
  GI50: 2.43 µM
  TGI: 11.2 µM
MDA-MB-231 breast
  GI50: 1.63 µM
  TGI: 3.24 µM
MDA-MB-435
  GI50: 2.44 µM
  TGI: 6.89 µM
MOLT-4 leukemia
  GI50: 2.76 µM
  TGI: 8.6 µM
NCI-H226 lung
  GI50: 6.23 µM
  TGI: 41.9 µM
NCI-H23 lung
  GI50: 1.92 µM
  TGI: 5.61 µM
NCI-H460 lung
  GI50: 2.11 µM
  TGI: 4.98 µM
NCI-H522 lung
  GI50: 1.83 µM
  TGI: 3.77 µM
NCI/ADR-RES ovarian
  GI50: 2.49 µM
  TGI: 7.04 µM
OVCAR-3 ovarian
  GI50: 2.29 µM
  TGI: 5.58 µM
OVCAR-4 ovarian
  GI50: 2.7 µM
  TGI: 22.5 µM
OVCAR-5 ovarian
  GI50: 2.26 µM
  TGI: 5.86 µM
OVCAR-8 ovarian
  GI50: 2.85 µM
  TGI: 10.4 µM
PC-3 prostate
  GI50: 2.42 µM
  TGI: 10.3 µM
RPMI-8226 leukemia
  GI50: 2.32 µM
  TGI: 7.93 µM
RXF 393 renal
  GI50: 3.01 µM
  TGI: 8.72 µM
SF-268 CNS
  GI50: 3.3 µM
  TGI: 16.2 µM
SF-295 CNS
  GI50: 3.99 µM
  TGI: 21.6 µM
SF-539 CNS
  GI50: 4.77 µM
  TGI: 17.1 µM
SK-MEL-2 melanoma
  GI50: 1.99 µM
  TGI: 4.41 µM
SK-MEL-28 melanoma
  GI50: 4.16 µM
  TGI: 20.9 µM
SK-MEL-5 melanoma
  GI50: 4.41 µM
  TGI: 17.2 µM
SK-OV-3 ovarian
  GI50: 3.63 µM
  TGI: 15 µM
SN12C renal
  GI50: 2.63 µM
  TGI: 7.6 µM
SNB-19 CNS
  GI50: 3.71 µM
  TGI: 25.5 µM
SNB-75 CNS
  GI50: 2.68 µM
  TGI: 9.37 µM
SR leukemia
  GI50: 2.59 µM
  TGI: 6.32 µM
SW-620 colon
  GI50: 2.89 µM
  TGI: 10.7 µM
T-47D breast
  GI50: 3.65 µM
  TGI: 30.3 µM
TK-10 renal
  GI50: 3.99 µM
  TGI: 9.5 µM
U251 CNS
  GI50: 2.39 µM
  TGI: 7.09 µM
UACC-257 melanoma
  GI50: 2.91 µM
  TGI: 14.5 µM
UACC-62 melanoma
  GI50: 1.71 µM
  TGI: 3.72 µM
UO-31 renal
  GI50: 2.22 µM
  TGI: 8.79 µM
